Assay results published in patent publication US6518423B1, “Benzopiperidine derivatives” (Eisai Co., Ltd., priority 1996, dated 2003).
Counter-ions that a name gives are not always drawn. Like-named read-outs stand apart in the source and are kept apart here.

Legend:
ICAM-1 = test: Effect on the expression of ICAM-1 in human cultured umbilical cord endothelial cells (TNF-stimulated, ELISA); format: cell-based; settings: 1 ng/ml TNF, expression with TNF = 100%, without TNF = 0%, read-out: IC50 (50% inhibitory concentration of ICAM-1 expression)
Procedure: Effect on the Expression of ICAM-1 in Human Cultured Umbilical Cord Endothelial Cells
Examination was made on the effect on the expression of ICAM-1 which is one of adhesion molecules expressed on the surfaces of cultured endothelia cells. The endotheliall cells were suspended in an MCDB131 medium containing 10% of fetal calf serum and pipetted into a 96-well culture plate (10,000 cells/well). After culturing at 37° C. in the presence of 5% of carbon dioxide for 2 days, 1 ng/ml of a tumor necrosis factor (TNF) and a test compound were added to the 96-well culture plate. After culturing at 37° C. in the presence of 5% of carbon dioxide for 4 hours and then washing with a phosphate buffer once, 0.05% of glutaraldehyde was added thereto. Six minutes thereafter, the plate was washed twice and 1 μg/ml of a mouse antihuman ICAM-1 antibody was added thereto. After allowing to stand for 1 hour, it was washed twice and a peroxidase-labeled sheep antimouse immunoglobulin antibody was added thereto. After allowing to stand for 1 hour, it was washed twice and a color developing substrate for peroxidase (o-phenylenediamine) was added thereto. After allowing to stand at room temperature for 10 minutes, a 1 N solution of sulfuric acid was added thereto. Then the absorbance at 490 nm was measured with the use of an absorptiometer for 96-well plate. The value thus obtained was employed as an indication of the ICAM-1 expression.

[1] = system: Carrageenin-induced Rat Pleurisy; test: Effect on carrageenin-induced rat pleurisy; format: in vivo; settings: Rattus norvegicus, po, 5 h, total cell count in pleural exudate 5 hours after carrageenin, read-out: Inhibitory ratio (%); for inhibition in vivo at 10 mg/kg: dose 10 mg/kg orally 30 minutes before carrageenin; for inhibition in vivo at 30 mg/kg: dose 30 mg/kg orally 30 minutes before carrageenin
Procedure: Effect on Carrageenin-induced Rat Pleurisy
200 μl of a carrageenin solution (10 mg/ml in physiological saline) was intrathoracically injected into rats. Five hours thereafter, blood of the animals was collected from the abdominal aorta under etherization so as to induce death from blood loss. The exudate was taken up from the thoracic cavity and weighed with a single-pan balance. Further, the exudate was diluted with Turk's solution and the cells were counted by using a counting chamber. Next the total cell count was calculated by multiplying the cell count by the exudate volume. Thus the inhibitory ratio was calculated by taking the total cell count with the administration of carrageenin as 100% and that with the administration of physiological saline as 0%. Each test compound was suspended in a 0.5% solution of methylcellulose and orally administered at a dose of 5 ml/kg 30 minutes before the injection of carrageenin.

[2] = Homo sapiens, Endothelial cell, 4 h

Row | SMILES | IC50 (ICAM-1; [2]) [µM] | inhibition in vivo at 10 mg/kg [1] [%] | inhibition in vivo at 30 mg/kg [1] [%] | inhibition in vivo at 100 mg/kg ([1]; dose 100 mg/kg orally 30 minutes before carrageenin) [%] | IC50 (ICAM-1; 4 hours) [µM]
1 | O=C(O)C1CC2(CCN(Cc3ccc4c(c3)Nc3nccnc3S4)CC2)C1 [Example 686] | 0.9 | 71 | – | – | –
2 | O=C(O)C1(C2CCN(Cc3ccc4c(c3)Nc3nccnc3S4)CC2)CC1 [Example 698] | 0.49 | 26 | – | – | –
3 | O=C(O)CC1CCC2CN(Cc3ccc4c(c3)Nc3nccnc3S4)CC2C1 (centres unmarked) [Example 717] | 1.15 | 32 | – | – | –
4 | CC(CCC1CCN(Cc2ccc3c(c2)Nc2nccnc2S3)CC1)C(=O)O (centres unmarked) [Example 729] | 1.3 | 64 | – | – | –
5 | c1cncc(NCc2ccc3c(c2)Nc2nccnc2S3)c1 [Example 901, 8-[N-(Pyridin-3-yl)aminomethyl]-10H-pyrazino[2,3-b][1,4]benzothiazine] | 1.8 | – | 38 | – | –
6 | OC(c1cccnc1)c1ccc2c(c1)Nc1nccnc1S2 (centres unmarked) [Example 1145] | 0.77 | 29 | – | – | –
7 | NCc1ccc2c(c1)Nc1nccnc1S2 [Example 1241, 8-(Aminomethyl)10H-pyrazino[2,3-b][1,4]benzothiazine hydrochloride] | 3.6 | – | – | 28 | –
8 | CC(C)(O)c1ncnc2c1ncn2Cc1ccc2c(c1)Nc1nccnc1S2 [Example 1439] | 0.49 | – | 77 | – | –
9 | N#C/N=C(\N)Cc1ccc2c(c1)Nc1nccnc1S2 [Example 1487, N^2-Cyano-(10H-pyrazino[2,3-b][1,4]benzothiazin-8-yl)acetamidine] | 0.67 | – | 32 | – | –
10 | O=C(O)CC1C2CCCC1CN(Cc1ccc3c(c1)Nc1nccnc1S3)C2 (stereo not drawn) [Example 1568, (endo,anti)-[3-(10H-Pyrazino[2,3-b][1,4]benzothiazin-8-ylmethyl)-3-azabicyclo[3.3.1]non-9-yl]acetic acid] | – | – | 50 | – | 0.5
